According to ChEMBL document CHEMBL6121036, “Evaluation of Cereblon-Directing Warheads for the Development of Orally Bioavailable PROTACs” (J Med Chem, 2025):
Values after ≈ are worked out from the molar mass of the structure shown. Active and inactive are the calls of the source. No cut-off for these calls is given here.

What was measured:
[1] = molecular target: T1, Protein cereblon/Bromodomain-containing protein 4 (Homo sapiens, UniProt O60885+Q96SW2); assay: PROTAC activity at CRBN/Hibit-tagged BRD4 (unknown origin) expressed in HEK293 cells co-expressing LgBiT assessed as degradation of BRD4 incubated for 24 hrs by […] glo-max assay; type: cell-based
[2] = molecular target: T1, Protein cereblon/Bromodomain-containing protein 4; assay: PROTAC activity at CRBN/Hibit-tagged BRD4 (unknown origin) expressed in HEK293 cells co-expressing LgBiT assessed as degradation of BRD4 incubated for 24 hrs by […] glo-max assay relative to control; type: cell-based
[3] = molecular target: T1, Protein cereblon/Bromodomain-containing protein 4; assay: PROTAC activity at CRBN/Hibit-tagged BRD4 (unknown origin) expressed in HEK293 cells co-expressing LgBiT assessed as degradation rate incubated for 24 hrs by […] glo-max assay; type: cell-based
MV4-11 = assay: Cytotoxicity against human MV4-11 cells assessed as reduction in cell viability incubated for 72 hrs by cell-titer glo assay; type: functional, cell-based; settings: MV4-11, 72 h
HD-MB03 = assay: Cytotoxicity against human HD-MB03 cells assessed as reduction in cell viability incubated for 72 hrs by cell-titer glo assay; type: functional, cell-based; settings: HD-MB03, 72 h
[4] = Kinetic aqueous solubility of the compound at pH 7.4; type: physicochemical; settings: read-out: Kinetic_solubility
[5] = Metabolic stability in mouse liver microsomes assessed as half life; type: ADME, Microsome; settings: for half-life: liver microsomes
[6] = molecular target: Protein cereblon/Bromodomain-containing protein 4/DNA damage-binding protein 1 (Homo sapiens) (UniProt O60885+Q96SW2+Q16531); assay: Binding affinity to his-tagged CRBN/DDB1/GST-tagged BRD4 (49 to 170 residues)(unknown origin) assessed as ternary complex formation (AUC) incubated for 1 hr by luminescence based Alphascreen assay; type: protein assay
[7] = Cmax in female CD1 mouse at 10 mg/kg, po measured upto 24 hrs by LC-MS/MS analysis; type: ADME, organism-based; settings: in vivo
[8] = Chemical stability in human MV4-11 cell culture media at 400 uM measured upto 72 hrs by UPLC analysis; type: physicochemical
[9] = Chemical stability in human HD-MB03 cell culture media at 400 uM measured upto 72 hrs by UPLC analysis; type: physicochemical
[10] = Effect on BRD3 level in human MV4-11 cells assessed as fold change at 100 nM measured after 4 hrs; type: functional
[11] = Effect on BRD4 level in human MV4-11 cells assessed as fold change at 100 nM measured after 4 hrs; type: functional
[12] = Effect on BRD2 level in human MV4-11 cells assessed as fold change at 100 nM measured after 4 hrs; type: functional
[13] = Effect on MYC level in human MV4-11 cells assessed as fold change at 100 nM measured after 4 hrs; type: functional
[14] = Effect on FYTTD1 level in human MV4-11 cells assessed as fold change at 100 nM measured after 4 hrs; type: functional
[15] = Effect on CCNF level in human MV4-11 cells assessed as fold change at 100 nM measured after 4 hrs; type: functional
[16] = Effect on CDC42EP3 level in human MV4-11 cells assessed as fold change at 100 nM measured after 4 hrs; type: functional
[17] = Effect on MCL1 level in human MV4-11 cells assessed as fold change at 100 nM measured after 4 hrs; type: functional
[18] = Effect on PLAU level in human MV4-11 cells assessed as fold change at 100 nM measured after 4 hrs; type: functional
[19] = Effect on ZFP36L2 level in human MV4-11 cells assessed as fold change at 100 nM measured after 4 hrs; type: functional
[20] = Effect on FGL2 level in human MV4-11 cells assessed as fold change at 100 nM measured after 4 hrs; type: functional
[21] = Effect on NSA2 level in human MV4-11 cells assessed as fold change at 100 nM measured after 4 hrs; type: functional
[22] = Effect on CCND3 level in human MV4-11 cells assessed as fold change at 100 nM measured after 4 hrs; type: functional
[23] = Effect on AURKA level in human MV4-11 cells assessed as fold change at 100 nM measured after 4 hrs; type: functional
[24] = Effect on NOP53 level in human MV4-11 cells assessed as fold change at 100 nM measured after 4 hrs; type: functional
[25] = Effect on PLK1 level in human MV4-11 cells assessed as fold change at 100 nM measured after 4 hrs; type: functional
[26] = Effect on RNF166 level in human MV4-11 cells assessed as fold change at 100 nM measured after 4 hrs; type: functional
[27] = Effect on ZBTB21 level in human MV4-11 cells assessed as fold change at 100 nM measured after 4 hrs; type: functional
[28] = Effect on TP53 level in human MV4-11 cells assessed as fold change at 100 nM measured after 4 hrs; type: functional
[29] = Permeability in MDCK-II cells incubated for 1 hr by UPLC/MS/UV analysis; type: ADME, cell-based, Canis lupus familiaris; settings: dog, read-out: permeability
[30] = Stability in mouse plasma assessed as half life by UPLC-MS/MS analysis; type: ADME, cell-free
[31] = AUC last in female CD1 mouse at 10 mg/kg, po measured upto 24 hrs by LC-MS/MS analysis; type: ADME, organism-based; settings: in vivo
HEK293 = assay: Cytotoxicity against HEK293 cells expressing LgBiT fused HiBiT-BRD2 measured after 24 hrs by cell titer-glo assay; type: toxicity, cell-based; settings: human, hek293, 24 h
[32] = molecular target: T2, Protein cereblon/Bromodomain-containing protein 2 (Homo sapiens) (UniProt P25440+Q96SW2); assay: PROTAC activity at CRBN/Hibit-tagged CRISPR BRD2 (unknown origin) expressed in HEK293 cells coexpressing LgBiT assessed as degradation of BRD2 by […] glo-max assay; type: cell-based
[33] = molecular target: T3, Protein cereblon/Bromodomain-containing protein 3 (Homo sapiens) (UniProt Q15059+Q96SW2); assay: PROTAC activity at CRBN/Hibit-tagged CRISPR BRD3 (unknown origin) expressed in HEK293 cells co-expressing LgBiT assessed as degradation of BRD3 by […] glo-max assay; type: cell-based
[34] = molecular target: T1, Protein cereblon/Bromodomain-containing protein 4; assay: PROTAC activity at CRBN/Hibit-tagged CRISPR BRD4 (unknown origin) expressed in HEK293 cells co-expressing LgBiT assessed as degradation of BRD4 by […] glo-max assay; type: cell-based
[35] = molecular target: T2, Protein cereblon/Bromodomain-containing protein 2 (Homo sapiens); assay: PROTAC activity at CRBN/Hibit-tagged CRISPR BRD2 (unknown origin) expressed in HEK293 cells coexpressing LgBiT assessed as degradation of BRD2 by […] glo-max assay relative to control; type: cell-based
[36] = molecular target: T3, Protein cereblon/Bromodomain-containing protein 3 (Homo sapiens); assay: PROTAC activity at CRBN/Hibit-tagged CRISPR BRD3 (unknown origin) expressed in HEK293 cells co-expressing LgBiT assessed as degradation of BRD3 by […] glo-max assay relative to control; type: cell-based
[37] = molecular target: T1, Protein cereblon/Bromodomain-containing protein 4; assay: PROTAC activity at CRBN/Hibit-tagged CRISPR BRD4 (unknown origin) expressed in HEK293 cells co-expressing LgBiT assessed as degradation of BRD4 by […] glo-max assay relative to control; type: cell-based
[38] = molecular target: T2, Protein cereblon/Bromodomain-containing protein 2 (Homo sapiens); assay: PROTAC activity at CRBN/Hibit-tagged CRISPR BRD2 (unknown origin) expressed in HEK293 cells coexpressing LgBiT assessed as degradation of BRD2 measured after 10 to 14 hrs by […] glo-max assay; type: cell-based; settings: time 10-14 hrs
[39] = molecular target: T3, Protein cereblon/Bromodomain-containing protein 3 (Homo sapiens); assay: PROTAC activity at CRBN/Hibit-tagged CRISPR BRD3 (unknown origin) expressed in HEK293 cells co-expressing LgBiT assessed as degradation of BRD3 measured after 13 to 16 hrs by […] glo-max assay; type: cell-based; settings: time 13-16 hrs
[40] = molecular target: T1, Protein cereblon/Bromodomain-containing protein 4; assay: PROTAC activity at CRBN/Hibit-tagged CRISPR BRD4 (unknown origin) expressed in HEK293 cells co-expressing LgBiT assessed as degradation of BRD4 measured after 18 to 24 hrs by […] glo-max assay; type: cell-based; settings: time 18-24 hrs
[41] = molecular target: Protein cereblon (Homo sapiens) (UniProt Q96SW2); assay: Binding affinity to CRBN (unknown origin)
[42] = Permeability in human MV4-11 cells assessed as cell availability index relative to lenalidomide; type: ADME, cell-based

Cc1sc2c(c1C)C(c1ccc(Cl)cc1)=N[C@@H](CC(=O)N1CCC(CN3CCN(c4ccc(N5CCC(=O)NC5=O)cc4)CC3)CC1)c1nnc(C)n1-2
DC50 [1]: 2.74 nM
Emax [2]: 46.4%
Activity [3]: 0.047 fRLU/hr
IC50 (MV4-11): 0.66 nM
IC50 (HD-MB03): 15.1 nM
solubility kinetic [4]: 72.5 µM (≈ 54.7 µg/mL)
half-life [5]: 85.2 min
Activity [6]: Active
Cmax [7]: 345 ng/mL
Stability [8]: Stable
Stability [9]: Stable
fold change (FC) [10]: -2.99
fold change (FC) [11]: -2.92
fold change (FC) [12]: -2.79
fold change (FC) [13]: -2.09
fold change (FC) [14]: -1.21
fold change (FC) [15]: -0.89
fold change (FC) [16]: -1.16
fold change (FC) [17]: -1.01
fold change (FC) [18]: -0.89
fold change (FC) [19]: -0.91
fold change (FC) [20]: -1
fold change (FC) [21]: -0.85
fold change (FC) [22]: -0.7
fold change (FC) [23]: -0.74
fold change (FC) [24]: -0.72
fold change (FC) [25]: -0.67
fold change (FC) [26]: -0.3
fold change (FC) [27]: -0.1
fold change (FC) [28]: 1.65
Papp at 1 h [29]: 0.29 ×10⁻⁶ cm/s
half-life [30]: 990 min
AUC(0-t) at 24 h [31]: 1420 ng·h/mL

Cc1sc2c(c1C)C(c1ccc(Cl)cc1)=N[C@@H](CC(=O)N1CCC(CN3CCN(c4ccc5c(c4)n(C)c(=O)n5C4CCC(=O)NC4=O)CC3)CC1)c1nnc(C)n1-2 (some centres not stated)
DC50 [1]: 0.57 nM
Emax [2]: 96.9%
Activity [3]: 0.343 fRLU/hr
IC50 (MV4-11): 0.03 nM
IC50 (HD-MB03): 0.56 nM
solubility kinetic [4]: 74.5 µM (≈ 61.3 µg/mL)
half-life [5]: 130 min
t1/2 ([5]; microsomes): 2.17 h
Activity [6]: Active
Activity (HEK293): Non-toxic
Cmax [7]: 23 ng/mL
Activity [32]: Active
Activity [33]: Active
Activity [34]: Active
Activity [35]: > 95%
Activity [36]: > 95%
Activity [37]: > 90%
Activity [38]: Active
Activity [39]: Active
Activity [40]: Active
Activity [41]: Active
Ratio [42]: 3.7
fold change (FC) [10]: -4.26
fold change (FC) [11]: -3.81
fold change (FC) [12]: -3.63
fold change (FC) [13]: -2.43
fold change (FC) [14]: -1.69
fold change (FC) [15]: -2.01
fold change (FC) [16]: -1.05
fold change (FC) [17]: -1.19
fold change (FC) [18]: -1.08
fold change (FC) [19]: -1.03
fold change (FC) [20]: -0.86
fold change (FC) [21]: -1.12
fold change (FC) [22]: -0.86
fold change (FC) [23]: -1.01
fold change (FC) [24]: -0.87
fold change (FC) [25]: -0.76
fold change (FC) [26]: -0.24
fold change (FC) [27]: -0.13
fold change (FC) [28]: 1.88
Papp at 1 h [29]: 0.95 ×10⁻⁶ cm/s
half-life [30]: 4100 min
AUC(0-t) at 24 h [31]: 97 ng·h/mL
